According to patent US8618139B2, “Oxadiazole derivatives as sphingosine 1-phosphate (S1P) receptor modulators” (Allergan, Inc., priority 2010, dated 2013):

molecular target: T1, human S1P1 receptor (Homo sapiens, UniProt P21453); assay: GTP γ35S binding assay for S1P1 activity; format: biochemical; details: activity potency from GTP γ35S binding; membranes, test compounds 0.08 to 5,000 nM, 30 min at 25° C.
T1 construct: expressed in transfected cells; membranes used
Description: Compounds were synthesized and tested for S1P1 activity using the GTP γ^35S binding assay. These compounds may be assessed for their ability to activate or block activation of the human S1P1 receptor in cells stably expressing the S1P1 receptor.
GTP γ^35S binding was measured in the medium containing (mM) HEPES 25, pH 7.4, MgCl2 10, NaCl 100, dithitothreitol 0.5, digitonin 0.003%, 0.2 nM GTP γ^35S, and 5 μg membrane protein in a volume of 150 μl. Test compounds were included in the concentration range from 0.08 to 5,000 nM unless indicated otherwise. Membranes were incubated with 100 μM 5′-adenylylimmidodiphosphate for 30 min, and subsequently with 10 μM GDP for 10 min on ice. Drug solutions and membrane were mixed, and then reactions were initiated by adding GTP γ^35S and continued for 30 min at 25° C. Reaction mixtures were filtered over Whatman GF/B filters under vacuum, and washed three times with 3 mL of ice-cold buffer (HEPES 25, pH7.4, MgCl2 10 and NaCl 100). Filters were dried and mixed with scintillant, and counted for ^35S activity using a β-counter. Agonist-induced GTP γ^35S binding was obtained by subtracting that in the absence of agonist. Binding data were analyzed using a non-linear regression method. In case of antagonist assay, the reaction mixture contained 10 nM S1P in the presence of test antagonist at concentrations ranging from 0.08 to 5000 nM.

T1 sequence (P21453 whole entry): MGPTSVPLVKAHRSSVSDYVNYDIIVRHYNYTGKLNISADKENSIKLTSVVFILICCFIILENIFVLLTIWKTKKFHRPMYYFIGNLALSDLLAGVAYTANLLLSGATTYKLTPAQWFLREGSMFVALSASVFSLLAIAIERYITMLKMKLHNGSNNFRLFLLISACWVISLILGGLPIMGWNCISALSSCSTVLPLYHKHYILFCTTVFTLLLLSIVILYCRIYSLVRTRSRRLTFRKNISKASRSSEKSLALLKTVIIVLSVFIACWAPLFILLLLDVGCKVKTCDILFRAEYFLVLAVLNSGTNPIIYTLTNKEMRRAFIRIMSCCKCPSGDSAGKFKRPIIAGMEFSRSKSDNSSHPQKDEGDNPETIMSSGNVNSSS

EC50 [nM]	Structure (SMILES)
368	CNc1ncccc1-c1noc(C(Sc2ccc(C)c(C)c2)c2cccc(F)c2)n1 (stereo not shown) [Compound 3, 3-(5-(((3,4-dimethylphenyl)thio)(3-fluorophenyl)methyl)-1,2,4-oxadiazol-3-yl)-N-methylpyridin-2-amine]
1340	CNc1ncccc1-c1noc(C(Oc2ccc(C)cc2)c2cccc(Cl)c2)n1 (stereo not shown) [Compound 32, 3-(5-((3-chlorophenyl)(p-tolyloxy)methyl)-1,2,4-oxadiazol-3-yl)-N-methylpyridin-2-amine]
3120	CNc1ncccc1-c1noc(C(Oc2ccc(C)cc2)c2ccc(Cl)cc2)n1 (stereo not shown) [Compound 26, 3-(5-((4-chlorophenyl)(p-tolyloxy)methyl)-1,2,4-oxadiazol-3-yl)-N-methylpyridin-2-amine]
638	CNc1ncccc1-c1noc(C(Sc2ccc(C)c(C)c2)c2ccc(Cl)c(Cl)c2)n1 (stereo not shown) [Compound 4, 3-(5-((3,4-dichlorophenyl)((3,4-dimethylphenyl)thio)methyl)-1,2,4-oxadiazol-3-yl)-N-methylpyridin-2-amine]
2390	CNc1ncccc1-c1noc(C(Nc2ccc(C)c(C)c2)c2ccccc2)n1 (stereo not shown) [Compound 10, 3-(5-(((3,4-dimethylphenyl)amino)(phenyl)methyl)-1,2,4-oxadiazol-3-yl)-N-methylpyridin-2-amine]
336	CNc1ncccc1-c1noc(C(Nc2ccc(C)c(C)c2)c2cccc(Cl)c2)n1 (stereo not shown) [Compound 1, 3-(5-((3-chlorophenyl)((3,4-dimethylphenyl)amino)methyl)-1,2,4-oxadiazol-3-yl)-N-methylpyridin-2-amine]
2020	CNc1ncccc1-c1noc(C(Sc2ccc(C)cc2C)c2ccc(Cl)cc2)n1 (stereo not shown) [Compound 16, 3-(5-((4-chlorophenyl)((2,4-dimethylphenyl)thio)methyl)-1,2,4-oxadiazol-3-yl)-N-methylpyridin-2-amine]
2080	CNc1ncccc1-c1noc(C(Oc2ccc(Cl)c(C)c2)c2ccc(Cl)cc2)n1 (stereo not shown) [Compound 21, 3-(5-((4-chloro-3-methylphenoxy)(4-chlorophenyl)methyl)-1,2,4-oxadiazol-3-yl)-N-methylpyridin-2-amine]
2140	CNc1ncccc1-c1noc(C(Oc2cccc(C)c2)c2ccccc2Cl)n1 (stereo not shown) [Compound 35, 3-(5-((2-chlorophenyl)(m-tolyloxy)methyll)-1,2,4-oxadiazol-3-yl)-N-methylpyridin-2-amine]
1650	CNc1ncccc1-c1noc(C(Oc2ccc(C)c(C)c2)c2ccccc2Cl)n1 (stereo not shown) [Compound 38, 3-(5-((2-chlorophenyl)(3,4-dimethylphenoxy)methyl)-1,2,4-oxadiazol-3-yl)-N-methylpyridin-2-amine]
1320	CNc1ncccc1-c1noc(C(Sc2ccccc2)c2ccccc2)n1 (stereo not shown) [Compound 27, N-methyl-3-(5-(phenyl(phenylthio)methyl)-1,2,4-oxadiazol-3-yl)pyridin-2-amine]
550	CNc1ncccc1-c1noc(C(SC2CCCCC2)c2ccc(Cl)cc2)n1 (stereo not shown) [Compound 17, 3-(5-((4-chlorophenyl)(cyclohexylthio)methyl)-1,2,4-oxadiazol-3-yl)-N-methylpyridin-2-amine]
716	CNc1ncccc1-c1noc(C(Sc2ccc(C)c(C)c2)c2ccccc2Cl)n1 (stereo not shown) [Compound 9, 3-(5-((2-chlorophenyl)((3,4-dimethylphenyl)thio)methyl)-1,2,4-oxadiazol-3-yl)-N-methylpyridin-2-amine]
214	CNc1ncccc1-c1noc(C(Sc2ccc(C)c(C)c2)c2cccc(Cl)c2)n1 (stereo not shown) [Compound 5, 3-(5-((3-chlorophenyl)((3,4-dimethylphenyl)thio)methyl)-1,2,4-oxadiazol-3-yl)-N-methylpyridin-2-amine]
2560	CNc1ncccc1-c1noc(C(Sc2ccc(OC)cc2)c2ccc(Cl)cc2)n1 (stereo not shown) [Compound 20, 3-(5-((4-chlorophenyl)((4-methoxyphenyl)thio)methyl)-1,2,4-oxadiazol-3-yl)-N-methylpyridin-2-amine]
1540	CNc1ncccc1-c1noc(C(Oc2ccc(C)c(C)c2)c2cccc(Cl)c2)n1 (stereo not shown) [Compound 7, 3-(5-((3-chlorophenyl)(3,4-dimethylphenoxy)methyl)-1,2,4-oxadiazol-3-yl)-N-methylpyridin-2-amine]
1380	CNc1ncccc1-c1noc(C(Sc2ccoc2C)c2cccc(Cl)c2)n1 (stereo not shown) [Compound 13, 3-(5-((3-chlorophenyl)((2-methylfuran-3-yl)thio)methyl)-1,2,4-oxadiazol-3-yl)-N-methylpyridin-2-amine]
2730	CNc1ncccc1-c1noc(C(Oc2cccc(Cl)c2)c2ccccc2Cl)n1 (stereo not shown) [Compound 36, 3-(5-((3-chlorophenoxy)(2-chlorophenyl)methyl)-1,2,4-oxadiazol-3-yl)-N-methylpyridin-2-amine]
1920	CNc1ncccc1-c1noc(C(Oc2ccc(C)cc2)c2ccccc2Cl)n1 (stereo not shown) [Compound 30, 3-(5-((2-chlorophenyl)(p-tolyloxy)methyl)-1,2,4-oxadiazol-3-yl)-N-methylpyridin-2-amine]
509	CNc1ncccc1-c1noc(C(Oc2ccc(C)c(C)c2)c2ccc(Cl)cc2)n1 (stereo not shown) [Compound 15, 3-(5-((4-chlorophenyl)(3,4-dimethylphenoxy)methyl)-1,2,4-oxadiazol-3-yl)-N-methylpyridin-2-amine]
241	CNc1ncccc1-c1noc(C(Sc2ccc(C)c(C)c2)c2ccc(Cl)cc2)n1 (stereo not shown) [Compound 22, 3-(5-((4-chlorophenyl)((3,4-dimethylphenyl)thio)methyl)-1,2,4-oxadiazol-3-yl)-N-methylpyridin-2-amine]
3010	CNc1ncccc1-c1noc(C(SC2CCCCC2)c2cccc(C(F)(F)F)c2)n1 (stereo not shown) [Compound 6, 3-(5-((cyclohexylthio)(3-(trifluoromethyl)phenyl)methyl)-1,2,4-oxadiazol-3-yl)-N-methylpyridin-2-amine]
3190	CNc1ncccc1-c1noc(C(Sc2ccc(C)cc2)c2ccc(Cl)cc2)n1 (stereo not shown) [Compound 18, 3-(5-((4-chlorophenyl)(p-tolylthio)methyl)-1,2,4-oxadiazol-3-yl)-N-methylpyridin-2-amine]
650	CNc1ncccc1-c1noc(C(Sc2ccc(C)c(C)c2)c2cccc(Br)c2)n1 (stereo not shown) [Compound 2, 3-(5-((3-bromophenyl)((3,4-dimethylphenyl)thio)methyl)-1,2,4-oxadiazol-3-yl)-N-methylpyridin-2-amine]
2050	CNc1ncccc1-c1noc(C(Oc2ccc(Cl)cc2)c2ccc(Cl)cc2)n1 (stereo not shown) [Compound 23, 3-(5-((4-chlorophenoxy)(4-chlorophenyl)methyl)-1,2,4-oxadiazol-3-yl)-N-methylpyridin-2-amine]
